Our source for the IC50 values is US8633204B2 (Pfizer Inc., priority 2006, dated 2014).

The IC50 is the point on the concentration scale where inhibition reaches its midpoint.

Test [1] relates to PI3-K in BT20 cells (phosphorylation of AKT at serine 473). As to the kind of experiment: PI3-Kα Cellular Assay (AKT Ser473 phosphorylation ELISA in BT20 cells). It counts as cell-based, human. The conditions noted are these: Homo sapiens, BT-20, pAKT Ser473 ELISA, 1 hour incubation. In short, it runs like this:
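Cells seeded overnight in 0.5% FBS, then exposed 1 h at 37 °C to an 11-concentration 1:3 dilution series, in duplicate.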
In general terms: In an ELISA, binding on a coated surface is turned into a signal by an enzyme label.

In test [2] the target is PI3-Kα (Mus musculus (Mouse), UniProt P42337). As to the kind of experiment: PI3-Kα Biochemical Assay (fluorescence polarization kinase assay). The essentials: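 Co-expressed mouse p110/p85 PI3-Kα (4 nM stock) acting on PI(4,5)P2 (60 μM stock) with ATP/MgCl2 in HEPES pH 7.4 buffer, 35 min at room temperature, then EDTA stop. PI(3,4,5)P3 product detected by displacement of TAMRA-PIP3 from Grip1 PH domain (FP, 535/580 nm). IC50 from sigmoidal fit of % inhibition.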
PI3-Kα, sequence (P42337 whole entry, the tested form may be a part): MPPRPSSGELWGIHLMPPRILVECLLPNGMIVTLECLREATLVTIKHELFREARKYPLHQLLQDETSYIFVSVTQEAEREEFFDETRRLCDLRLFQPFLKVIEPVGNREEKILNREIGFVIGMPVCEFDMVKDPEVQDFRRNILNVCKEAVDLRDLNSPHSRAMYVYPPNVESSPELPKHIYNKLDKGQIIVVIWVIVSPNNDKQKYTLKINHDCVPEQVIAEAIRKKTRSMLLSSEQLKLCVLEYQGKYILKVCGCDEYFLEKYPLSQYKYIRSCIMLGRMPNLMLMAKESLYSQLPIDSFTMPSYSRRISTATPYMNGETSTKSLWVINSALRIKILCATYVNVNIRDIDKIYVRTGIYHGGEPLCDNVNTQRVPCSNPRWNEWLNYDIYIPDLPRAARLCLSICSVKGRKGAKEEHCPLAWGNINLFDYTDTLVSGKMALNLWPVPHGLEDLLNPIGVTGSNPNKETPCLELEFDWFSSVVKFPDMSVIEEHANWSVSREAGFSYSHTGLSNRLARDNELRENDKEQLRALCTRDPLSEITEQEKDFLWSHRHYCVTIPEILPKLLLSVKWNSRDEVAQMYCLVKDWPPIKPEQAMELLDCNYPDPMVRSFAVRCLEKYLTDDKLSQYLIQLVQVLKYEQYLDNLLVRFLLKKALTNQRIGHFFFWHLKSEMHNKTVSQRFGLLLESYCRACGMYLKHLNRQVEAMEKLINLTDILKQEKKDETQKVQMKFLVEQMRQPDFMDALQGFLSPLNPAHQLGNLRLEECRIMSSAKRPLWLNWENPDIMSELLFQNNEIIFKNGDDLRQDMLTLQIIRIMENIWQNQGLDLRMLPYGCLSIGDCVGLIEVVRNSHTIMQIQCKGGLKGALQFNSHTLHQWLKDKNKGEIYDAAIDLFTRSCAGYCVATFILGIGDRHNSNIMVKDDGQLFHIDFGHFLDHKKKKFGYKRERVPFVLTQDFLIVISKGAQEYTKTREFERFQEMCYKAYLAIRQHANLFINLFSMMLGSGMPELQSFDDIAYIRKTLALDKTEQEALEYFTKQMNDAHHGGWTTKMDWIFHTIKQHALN
PI3-Kα, sequence (P26450 whole entry partner, the tested form may be a part): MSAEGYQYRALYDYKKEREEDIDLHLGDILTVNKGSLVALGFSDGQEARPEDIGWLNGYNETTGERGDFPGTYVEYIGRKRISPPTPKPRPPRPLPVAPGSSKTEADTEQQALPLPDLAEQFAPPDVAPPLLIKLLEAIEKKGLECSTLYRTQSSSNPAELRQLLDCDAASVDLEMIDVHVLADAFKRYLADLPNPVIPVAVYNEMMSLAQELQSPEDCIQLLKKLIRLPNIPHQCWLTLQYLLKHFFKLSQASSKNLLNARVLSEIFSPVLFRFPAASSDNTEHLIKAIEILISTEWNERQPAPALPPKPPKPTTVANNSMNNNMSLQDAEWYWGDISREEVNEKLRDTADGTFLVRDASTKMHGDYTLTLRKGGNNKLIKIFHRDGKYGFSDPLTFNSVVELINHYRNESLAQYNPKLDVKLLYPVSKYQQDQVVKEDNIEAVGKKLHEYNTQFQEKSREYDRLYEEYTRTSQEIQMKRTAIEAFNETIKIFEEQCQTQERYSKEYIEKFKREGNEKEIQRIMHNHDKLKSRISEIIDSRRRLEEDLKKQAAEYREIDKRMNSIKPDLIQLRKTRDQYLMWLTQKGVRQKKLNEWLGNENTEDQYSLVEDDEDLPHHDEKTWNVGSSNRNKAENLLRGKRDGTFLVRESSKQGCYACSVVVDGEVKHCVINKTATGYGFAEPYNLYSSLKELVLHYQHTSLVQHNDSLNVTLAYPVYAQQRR
For orientation: Fluorescence polarisation rises when a labelled molecule tumbles more slowly, as on binding a larger partner.

Take `COc1ccc(-c2cc3c(C)nc(N)nc3n(C3CCCC3)c2=O)cc1F` [Compound 262, 2-amino-8-cyclopentyl-6-(3-fluoro-4-methoxyphenyl)-4-methylpyrido[23-d]pyrimidin-7(8H)-one]: the figures for the IC50 in test [1] and in test [2] were 45.9 nM and 15 nM, respectively.

`CCN(CC)C(=O)OCn1cc(-c2cc3c(C)nc(N)nc3n(C(C)C)c2=O)nn1` [Compound 263, (4-(2-Amino-8-isopropyl-4-methyl-7-oxo-7,8-dihydropyrido[2,3-d]pyrimidin-6-yl)-1H-1,2,3-triazol-1-yl)methyl diethylcarbamate]: the IC50 in test [1] was 10000 nM; in test [2], 3300 nM.

With `Cc1nc(N)nc2c1cc(-c1c[nH]nn1)c(=O)n2C(C)C` [Compound 264, 2-Amino-8-isopropyl-4-methyl-6-(1H-1,2,3-triazol-4-yl)pyrido[2,3-d]pyrimidin-7(8H)-one], the IC50 was determined as 556 nM in test [1] and 62 nM in test [2].

Consider `COc1ncc(-c2cc3c(C)nc(N)nc3n(C(C)C)c2=O)cn1` [Compound 266, 2-amino-8-isopropyl-6-(2-methoxypyrimidin-5-yl)-4-methylpyrido[2,3-d]pyrimidin-7(8H)-one], for which the IC50 was 49.3 nM in test [1] and 2.2 nM in test [2].

Regarding `Cc1nc(N)nc2c1cc(-c1cnc(O)nc1)c(=O)n2C1CCOCC1` [Compound 267, 2-Amino-6-(2-hydroxypyrimidin-5-yl)-4-methyl-8-(tetrahydro-2H-pyran-4-yl)pyrido[2,3-d]pyrimidin-7(8H)-one], the IC50 in test [1] is 10000 nM; in test [2], 810 nM.

Consider `Cc1nc(N)nc2c1cc(-c1cnc(O)nc1)c(=O)n2C(C)C` [Compound 268, 2-amino-6-(2-hydroxypyrimidin-5-yl)-8-isopropyl-4-methylpyrido[2,3-d]pyrimidin-7(8H)-one], for which the 50% inhibitory concentration (IC50) in test [1] is 2520 nM; in test [2] it was 300 nM.

Take `Cc1nc(N)nc2c1cc(C#N)c(=O)n2C1CCC1` [Compound 269, 2-Amino-8-cyclobutyl-4-methyl-7-oxo-7,8-dihydropyrido[2,3-d]pyrimidine-6-carbonitrile]: the results for the IC50 in test [1] and in test [2] were 2090 nM and 95 nM, respectively.

With `C#Cc1cc2c(C)nc(N)nc2n(C2CCC2)c1=O` [Compound 270, 2-Amino-8-cyclobutyl-6-ethynyl-4-methylpyrido[2,3-d]pyrimidin-7(8H)-one], the results for the IC50 in test [1] and in test [2] were 657 nM and 110 nM, respectively.

Consider `Cc1nc(N)nc2c1cc(-c1cnc3ccccc3c1)c(=O)n2[C@H]1CC[C@H](O)CC1` [Compound 271, 2-amino-8-(trans-4-hydroxycyclohexyl)-4-methyl-6-(quinolin-3-yl)pyrido[2,3-d]pyrirnidin-7(8H)-one], for which the IC50 in test [1] worked out at 42 nM; in test [2] it was 8.2 nM.

As for `COc1ccc(-c2cc3c(C)nc(NCC(F)F)nc3n([C@H]3CC[C@H](O)CC3)c2=O)cn1` [Compound 275, 2-(2,2-Difluoroethylamino)-8-(4-hydroxycyclohexyl)-6-(6-methoxypyridin-3-yl)-4-methylpyrido[2,3-d]pyrimidin-7(8H)-one], the concentration for half-maximal inhibition (IC50) worked out at 46.8 nM in test [1] and 12 nM in test [2].

Regarding `CCNc1nc(C)c2cc(-c3cnc(OC)c(F)c3)c(=O)n([C@H]3CC[C@H](O)CC3)c2n1` [Compound 276, 2-(ethylamino)-6-(5-fluoro-6-methoxypyridin-3-yl)-8-(trans-4-hydroxycyclohexyl)-4-methylpyrido[2,3-d]pyrimidin-7(8H)-one], the IC50 in test [1] turned out to be 5.1 nM; in test [2], 0.788 nM.

Turning to `CCNc1nc(C)c2cc(-c3cnc(OC)nc3)c(=O)n([C@H]3CC[C@H](O)CC3)c2n1` [Compound 277, 2-(ethylamino)-8-(trans-4-hydroxycyclohexyl)-6-(2-methoxypyrimidin-5-yl)-4-methylpyrido[2,3-d]pyrimidin-7(8H)-one], the results for the IC50 in test [1] and in test [2] were 20.6 nM and 1.59 nM, respectively.

As for `CCn1nccc1NC(=O)c1cc2c(C)nc(N)nc2n([C@H]2CC[C@H](O)CC2)c1=O` [Compound 278, 2-amino-N-(1-ethyl-1H-pyrazol-5-yl)-8-(trans-4-hydroxycyclohexyl)-4-methyl-7-oxo-78-dihydropyrido[23-d]pyrimidine-6-carboxamide], the values for the IC50 in test [1] and in test [2] were 50.5 nM and 1.3 nM, respectively.

For the compound `Cc1nc(N)nc2c1cc(C(=O)Nc1ccn[nH]1)c(=O)n2C(C)C` [Compound 279, 2-amino-8-isopropyl-4-methyl-7-oxo-N-1H-pyrazol-5-yl-7,8-dihydropyrido[2,3-d]pyrimidine-6-carboxamide], the figures for the IC50 in test [1] and in test [2] were 30.5 nM and 2.9 nM, respectively.

Take `CCn1cc(CNC(=O)c2cc3c(C)nc(NC)nc3n(C3CCCC3)c2=O)cn1` [Compound 281, 8-cyclopentyl-N-[(1-ethyl-1H-pyrazol-4-yl)methyl]-4-methyl-2-(methylamino)-7-oxo-7,8-dihydropyrido[2,3-d]pyrimidine-6-carboxamide]: the IC50 is above 10000 nM in test [1] and 1200 nM in test [2].

On to `CNc1nc(C)c2cc(C(=O)Nc3ccon3)c(=O)n(C3CCCC3)c2n1` [Compound 283, 8-cyclopentyl-N-isoxazol-3-yl-4-methyl-2-(methylamino)-7-oxo-7,8-dihydropyrido[2,3-d]pyrimidine-6-carboxamide], for which the concentration for half-maximal inhibition (IC50) in test [1] was found to be 72.2 nM; in test [2], 5 nM.

Turning to `COc1ncc(-c2cc3c(C)nc(N)nc3n([C@H]3CC[C@H](OCCO)CC3)c2=O)cn1` [Compound 287, 2-amino-8-[trans-4-(2-hydroxyethoxy)cyclohexyl]-6-(2-methoxypyrimidin-5-yl)-4-methylpyrido[2,3-d]pyrimidin-7(8H)-one], the figures for the IC50 in test [1] and in test [2] were 38.9 nM and 2.2 nM, respectively.

For `COc1ncc(-c2cc3c(C)nc(N)nc3n([C@H]3CC[C@H](OCCO)CC3)c2=O)cc1F` [Compound 288, 2-amino-6-(5-fluoro-6-methoxypyridin-3-yl)-8-[trans-4-(2-hydroxyethoxy)cyclohexyl]-4-methylpyrido[2,3-d]pyrimidin-7(8H)-one], the IC50 in test [1] was determined as 5.3 nM; in test [2], 1.44 nM.

On to `Cc1nc(N)nc2c1cc(Br)c(=O)n2[C@H]1CC[C@H](OCCO)CC1` [Compound 291, 2-amino-6-bromo-8-[trans-4-(2-hydroxyethoxy)cyclohexyl]-4-methylpyrido[2,3-d]pyrimidin-7(8H)-one], for which the IC50 was 96.5 nM in test [1] and 55.2 nM in test [2].

With `Cc1nc(N)nc2c1cc(-c1ccc(N(C)C)nc1)c(=O)n2[C@H]1CC[C@H](OCCO)CC1` [Compound 292], the IC50 came out at 12.1 nM in test [1] and 9.28 nM in test [2].

As to `COc1ncc(-c2cc3c(C)nc(N)nc3n([C@H]3CC[C@@H](OCCO)CC3)c2=O)cn1` [Compound 293, 2-amino-8-[cis-4-(2-hydroxyethoxy)cyclohexyl]-6-(2-methoxypyrimidin-5-yl)-4-methylpyrido[2,3-d]pyrimidin-7(8H)-one], the IC50 in test [1] was 15.3 nM; in test [2] it was 5.31 nM.

For `Cc1nc(N)nc2c1cc(-c1cn[nH]c1)c(=O)n2[C@H]1CC[C@@H](OCCO)CC1` [Compound 296, 2-amino-8-[cis-4-(2-hydroxyethoxy)cyclohexyl]-4-methyl-6-(1H-pyrazol-4-yl)pyrido[2,3-d]pyrimidin-7(8H)-one], the IC50 came out at 9.1 nM in test [1] and 29.7 nM in test [2].

Turning to `COc1ccc(-c2cc3c(C)nc(N)nc3n([C@H]3CC[C@H](OC[C@@H](O)CO)CC3)c2=O)cn1` [Compound 300, 2-amino-8-(trans-4-{[(2S)-2,3-dihydroxypropyl]oxy}cyclohexyl)-6-(6-methoxypyridin-3-yl)-4-methylpyrido[2,3-d]pyrimidin-7(8H)-one], the IC50 in test [1] worked out at 13.2 nM; in test [2], 6.82 nM.

As to `Cc1nc(N)nc2c1cc(-c1cnn(C)c1)c(=O)n2[C@H]1CC[C@H](OCCO)CC1` [Compound 302, 2-amino-8-[trans-4-(2-hydroxyethoxy)cyclohexyl]-4-methyl-6-(1-methyl-1H-pyrazol-4-yl)pyrido[2,3-d]pyrimidin-7(8H)-one], the IC50 in test [1] was 226 nM; in test [2], 22.3 nM.

With `COc1ccc(-c2cc3c(C)nc(N)nc3n([C@H]3C[C@H](OCCO)C3)c2=O)cn1` [Compound 314, 2-amino-8-(trans-3-(2-hydroxyethoxy)cyclobutyl]-6-(6-methoxypyridin-3-yl)-4-methylpyrido[2,3-d]pyrimidin-7(8H)-one], the IC50 is 50.8 nM in test [1] and 10.2 nM in test [2].

`COc1ncc(-c2cc3c(C)nc(N)nc3n([C@H]3C[C@H](OCCO)C3)c2=O)cc1F` [Compound 315, 2-amino-6-(5-fluoro-6-methoxypyridin-3-yl)-8-[trans-3-(2-hydroxyethoxy)cyclobutyl]-4-methylpyrido[2,3-d]pyrimidin-7(8H)-one]: the IC50 in test [1] came out at 14.6 nM; in test [2], 3.11 nM.

In the case of `COc1ncc(-c2cc3c(C)nc(N)nc3n([C@H]3C[C@H](OCCO)C3)c2=O)cn1` [Compound 316, 2-amino-8-[trans-3-(2-hydroxyethoxy)cyclobutyl]-6-(2-methoxypyrimidin-5-yl)-4-methylpyrido[2,3-d]pyrimidin-7(8H)-one], the IC50 in test [1] was determined as 93.5 nM; in test [2], 6.65 nM.

`COc1ccc(-c2cc3c(C)nc(N)nc3n([C@H]3C[C@H](OCC(N)=O)C3)c2=O)cn1` [Compound 317, 2-({trans-3-[2-amino-6-(6-methoxypyridin-3-yl)-4-methyl-7-oxopyrido[2,3-d]pyrimidin-8(7H)-yl]cyclobutyl}oxy)acetamide]: the IC50 in test [1] turned out to be 33.5 nM; in test [2], 4.72 nM.
